According to PMC7543951 (Molecular cell, 2020):

Biological target: T1, ROR1 pseudokinase domain (Homo sapiens, UniProt Q01973)
T1 sequence (Q01973 457-752): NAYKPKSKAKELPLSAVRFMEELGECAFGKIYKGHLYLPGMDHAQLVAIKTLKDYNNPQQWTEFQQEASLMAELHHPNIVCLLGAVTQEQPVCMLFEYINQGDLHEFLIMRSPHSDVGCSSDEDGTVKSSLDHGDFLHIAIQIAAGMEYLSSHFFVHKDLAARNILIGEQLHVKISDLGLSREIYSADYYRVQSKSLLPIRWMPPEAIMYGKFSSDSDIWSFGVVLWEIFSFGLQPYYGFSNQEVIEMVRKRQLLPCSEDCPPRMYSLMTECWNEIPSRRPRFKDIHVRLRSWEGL
Assay: DSF concentration series
Assay type: binding

- IC50: ~1 µM
SMILES: Cc1ccc(C(=O)Nc2ccc(CN3CCN(C)CC3)c(C(F)(F)F)c2)cc1C#Cc1cnc2[nH]ncc2c1 [GZD824]
